{"source": "paper PMC11084632", "about": "“Pharmacological Evaluation of Cannabinoid Receptor Modulators Using GRABeCB2.0 Sensor” (International Journal of Molecular Sciences, 2024)", "key": {"CB1R": {"molecular_target": "CB1R", "details": "cited from earlier work"}, "CB1 receptor": {"molecular_target": "CB1 receptor", "details": "cited from earlier work"}, "GRABeCB2.0 sensor [1]": {"molecular_target": "T1, GRABeCB2.0 sensor (Homo sapiens, UniProt P21554, S383T, form not given)", "T1 sequence (P21554 whole entry S383T, looked up, form open)": "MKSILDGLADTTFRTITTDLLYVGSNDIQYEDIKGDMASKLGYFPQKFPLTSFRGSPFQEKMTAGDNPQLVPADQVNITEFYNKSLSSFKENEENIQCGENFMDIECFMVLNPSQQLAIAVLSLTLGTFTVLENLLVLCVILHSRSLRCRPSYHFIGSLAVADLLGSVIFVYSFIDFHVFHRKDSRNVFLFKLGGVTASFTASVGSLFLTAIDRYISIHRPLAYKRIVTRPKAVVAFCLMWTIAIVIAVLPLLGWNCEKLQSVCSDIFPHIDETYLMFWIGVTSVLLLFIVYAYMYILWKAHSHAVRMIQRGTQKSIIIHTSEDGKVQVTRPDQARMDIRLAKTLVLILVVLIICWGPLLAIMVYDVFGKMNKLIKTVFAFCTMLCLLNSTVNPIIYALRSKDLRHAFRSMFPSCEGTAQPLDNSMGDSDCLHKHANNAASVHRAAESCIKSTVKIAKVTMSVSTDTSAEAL", "details": "increasing concentrations; cited from earlier work"}, "GRABeCB2.0 sensor [2]": {"molecular_target": "T1, GRABeCB2.0 sensor", "format": "cell-based", "details": "for Effect on CP55940 fluorescence signal/maximal fluorescence: modulator 1 μM, varying CP55940", "experimental": "For reported allosteric modulators, the binding assay was modified to test the ligand for basal activity, followed by the addition of the agonist, similar to the antagonist assay. […] The compound of interest was varied across concentrations ranging (as the case may be) from 1 nM, 3 nM, 10 nM, 30 nM, 100 nM, 300 nM, 1 μM, and 10 μM and performed in triplicate. The concentration of the compound depended on the modulator itself. The concentrations calculated were the final concentration inside the well of the 96-well plate, along with the 1% DMSO and 0.5 mg/mL BSA (See Supplementary Materials, Figure S1).\nStatistical Methods: All GRABeCB2.0 fluorescent signals (in cases noted) are expressed as normalized ΔF/F0 as calculated for the fluorescence assay in the PHERAstar FSX Plate reader. EC50/IC50 values were calculated using GraphPad Prism 9 by fitting data to a nonlinear regression model with normalized variable slope (four parameters, normalized where indicated) or using three-parameter response. Data represent mean ± SEM from a minimum of at least three independent experiments performed in triplicates."}, "GRABeCB2.0 sensor [3]": {"molecular_target": "T1, GRABeCB2.0 sensor", "format": "cell-based", "description": "(§1) Stable eCB2.0 sensor cell line: A stable sensor cell line was established in HEKtsA201 cells (Sigma-Aldrich, St. Louis, MO, USA) using the PiggyBac Transposon-based system (SBI, Palo Alto, CA, USA). Briefly, the open reading frame of the eCB2.0 sensor from eCB2.0 to C1^20 was cloned into the PB514B shuttle vector using In Fusion cloning (Takara, San Jose, CA, USA). The modified shuttle sequence was obtained with Sanger sequencing (Psomagen, Rockville, MD, USA) and verified (MacVector, Apex, NC, USA). HEKtsA201 cells were maintained in DMEM (Thermo Fisher, Waltham, MA, USA: Gibco #10569-010) supplemented with 10% fetal bovine serum (Gibco #A31605-01) and 1% penicillin/streptomycin (Gibco #15140-122) at 37 °C and 8% CO2. Cells were plated on 12-well tissue culture plates at approximately 50% confluency. This low cell density was used to avoid overgrowth of the cells during the delay between transfection and selection for stable integration. After 3 h, the eCB2.0 shuttle was co-transfected at a plasmid mass ratio of 10:1 with the SBI Transposase vector (PB210PA) using deacylated PEI [71]. All transfected wells were checked the next day for expression of the sensor by presence of basal cpeGFP fluorescence. […] Wells were selected for integration beginning at 4 days post transfection with […] Puromycin (Gibco #A11138-03). Selection was continued throughout all passages of the stable line. Cells were transferred to T25 (25 cm^2) tissue culture flasks after 10 to 14 days of selection.\nAssay Procedure: The DMEM solution was removed from the T25 flat-sided cell culture flask by decantation. […] A total of 7 mL of fresh DMEM was added, and cells were gently pipetted to remove any remaining cells from the flask wall. The total volume (10 mL) was transferred to a 15 mL Falcon tube and centrifuged at 800× g for 4 min at 23 °C. Upon completion of centrifugation, the supernatant was removed and discarded, leaving behind a small pellet of cells that were resuspended in 4 mL of fresh DMEM. The cell suspension was mixed in a 1:1 ratio with 0.4% TrypanBlue ([…] each) and […] solution was added to each side of a Countess Cell Counting Chamber and inserted into the Countess II Automated Cell Counter (Thermo Fisher, Waltham, MA, USA). The concentration of cells as adjusted to 0.7–1.0 million cells/mL with DMEM complete media and […] was added to the desired wells of a clear bottom black plastic tissue culture treated 96-well plate. The plate was incubated at 37 °C and 8% CO2 for a 24–48 h period. After incubation, the […] DMEM buffer was removed and replaced with […] of DPBS buffer containing calcium and magnesium (Gibco #14040-133). After the addition of the DPBS buffer, a baseline reading of the cells was taken using the PHERAstar FSX microplate reader (BMG/Labtech, Cary, NC, USA) to establish the F0 or initial fluorescence (see Figure 1A,B).\n(§2) When running the assay for an agonist, […] of the compound and […] of additional DPBS buffer was added to the wells. A concentration curve was made for the modulator with the final concentrations in the wells holding the cells ranging from 1 pM to 10 mM with 1% DMSO BSA in a total volume of 150 mL. […] In either assay, the cannabinoid ligands were added, followed by incubation of the compound on the cells at 37 °C for 5 min before taking a fluorescence reading using the PHERAstar FSX microplate reader equipped with a GFP filter cube module (Ex. 485 nm/Em. 520 nm). The recorded values were the F or final fluorescence.\nFor reported allosteric modulators, the binding assay was modified to test the ligand for basal activity, followed by the addition of the agonist, similar to the antagonist assay."}, "GRABeCB2.0 sensor [4]": {"molecular_target": "T1, GRABeCB2.0 sensor", "format": "cell-based", "details": "for EC50: HEK293 cells, without BSA, ΔF/F0 4-5 min, read-out: EC50 at inducing GRABeCB2.0 fluorescent signal; for Effect on GRABeCB2.0 basal fluorescence: no agonist", "description": "as §1\nAssay Procedure: The DMEM solution was removed from the T25 flat-sided cell culture flask by decantation. […] A total of 7 mL of fresh DMEM was added, and cells were gently pipetted to remove any remaining cells from the flask wall. The total volume (10 mL) was transferred to a 15 mL Falcon tube and centrifuged at 800× g for 4 min at 23 °C. […] After the addition of the DPBS buffer, a baseline reading of the cells was taken using the PHERAstar FSX microplate reader (BMG/Labtech, Cary, NC, USA) to establish the F0 or initial fluorescence (see Figure 1A,B).\nas §2, with “wells.” for “wells. A concentration curve was made for the modulator with the final concentrations in the wells holding the cells ranging from 1 pM to 10 mM with 1% DMSO BSA in a total volume of 150 mL.”\nStatistical Methods: All GRABeCB2.0 fluorescent signals (in cases noted) are expressed as normalized ΔF/F0 as calculated for the fluorescence assay in the PHERAstar FSX Plate reader."}, "[5]": {"details": "read-out: GRABeCB2.0 IC50 0.5 mg/mL BSA"}, "[6]": {"details": "reported, read-out: binding Ki (reported)"}}, "note": "Like-named read-outs stand apart in the source and are kept apart here."}
{"compound": "CCCCC/C=C\\C/C=C\\C/C=C\\C/C=C\\CCCC(=O)NCCCl", "note": "[ACEA, (5Z,8Z,11Z,14Z)-N-(2-chloroethyl)icosa-5,8,11,14-tetraenamide]", "values": [{"measurement": "Ki", "setting": "CB1R; Supplementary Table 1, # literature reported values, read-out: CB1R wild-type binding Ki", "value": 1.4, "unit": "nM"}, {"measurement": "Ki", "setting": "CB1R; read-out: Ki for CB1 receptor", "value": "1.5 to 5", "unit": "nM"}, {"measurement": "EC50", "setting": "CB1 receptor; read-out: reported EC50 for the CB1 receptor", "value": 51, "unit": "nM"}]}
{"compound": "C=C(C)[C@@H]1CCC(C)=C[C@H]1c1c(O)cc(CCCCC)cc1O", "note": "[CBD, cannabidiol]", "values": [{"measurement": "Effect on basal GRABeCB2.0 fluorescent signal (reported)", "setting": "GRABeCB2.0 sensor [1]", "value": "did not affect basal GRABeCB2.0 fluorescent signal"}]}
{"compound": "O=[N+]([O-])C[C@H](c1ccccc1)c1c(-c2ccccc2)[nH]c2ccccc12", "note": "[GAT228]", "values": [{"measurement": "Effect on CP55940 fluorescence signal/maximal fluorescence", "setting": "GRABeCB2.0 sensor [2]", "value": "did not shift the fluorescence signal"}]}
{"compound": "O=[N+]([O-])C[C@@H](c1ccccc1)c1c(-c2ccccc2)[nH]c2ccccc12", "note": "[GAT229]", "values": [{"measurement": "Effect on CP55940-activated GRABeCB2.0 fluorescence", "setting": "GRABeCB2.0 sensor [3]", "value": "more potent enhancer of sensor fluorescence than GAT228"}, {"measurement": "Effect on CP55940 fluorescence signal/maximal fluorescence", "setting": "GRABeCB2.0 sensor [2]", "value": "increased the maximal fluorescence"}, {"measurement": "apparent α (Schild-like analysis)", "setting": "GRABeCB2.0 sensor [2]; range of CP55940 concentrations", "value": "> 1"}]}
{"compound": "CC(C)[C@H](N=C(NS(=O)(=O)c1ccc(Cl)cc1)N1C[C@H](c2ccccc2)C(c2ccc(Cl)cc2)=N1)C(N)=O", "note": "[JD5037]", "values": [{"measurement": "Ki", "setting": "CB1R; read-out: binding Ki on CB1R", "value": 0.5, "unit": "nM"}, {"measurement": "IC50", "setting": "GRABeCB2.0 sensor [3]; read-out: GRABeCB2.0 IC50", "value": "148 ± 12", "unit": "nM"}, {"measurement": "IC50", "setting": "GRABeCB2.0 sensor [3]; [5]", "value": "29 ± 3.5", "unit": "nM"}]}
{"compound": "C/C(N)=N\\C(=N/S(=O)(=O)c1ccc(C(F)(F)F)cc1)N1C[C@H](c2ccccc2)C(c2ccc(Cl)cc2)=N1", "note": "[MRI-1867]", "values": [{"measurement": "Ki", "setting": "CB1R; [6]", "value": 2.6, "unit": "nM"}, {"measurement": "IC50", "setting": "CB1 receptor; reported, read-out: functional potency IC50 (reported)", "value": 40, "unit": "nM"}, {"measurement": "IC50", "setting": "GRABeCB2.0 sensor [3]; read-out: GRABeCB2.0 IC50", "value": "105 ± 5.4", "unit": "nM"}, {"measurement": "IC50", "setting": "GRABeCB2.0 sensor [3]; [5]", "value": "90 ± 5", "unit": "nM"}]}
{"compound": "CC(=O)NC(N)=NC(=NS(=O)(=O)c1ccc(C(F)(F)F)cc1)N1C[C@H](c2ccccc2)C(c2ccc(Cl)cc2)=N1", "note": "[MRI-1891]", "values": [{"measurement": "Ki", "setting": "CB1R; [6]", "value": 0.5, "unit": "nM"}, {"measurement": "IC50", "setting": "CB1 receptor; printed after 'bias toward inhibition of the β-arrestin pathway, over G-protein signaling pathway', read-out: IC50 (reported)", "value": 6, "unit": "nM"}]}
{"compound": "CC(=O)OCCn1c(C)c(C)s/c1=N\\C(=O)C1C(C)(C)C1(C)C", "note": "[MRI-2594]", "values": [{"measurement": "EC50", "setting": "GRABeCB2.0 sensor [4]", "value": "527 ± 27", "unit": "nM"}]}
{"compound": "CC(=O)OCCn1c(=NC(=O)C2C(C)(C)C2(C)C)sc2cc(C)ccc21", "note": "[MRI-2687]", "values": [{"measurement": "EC50", "setting": "GRABeCB2.0 sensor [4]", "value": 1300, "unit": "nM"}]}
{"compound": "CCc1c(C(=O)NCCc2ccc(N3CCCCC3)cc2)[nH]c2ccc(Cl)cc12", "note": "[ORG27569]", "values": [{"measurement": "Effect on CP55940-activated GRABeCB2.0 fluorescence", "setting": "GRABeCB2.0 sensor [3]", "value": "void of any concentration-dependent effects"}, {"measurement": "IC50", "setting": "GRABeCB2.0 sensor [3]; read-out: IC50 as weak antagonists (normalized curve)", "value": 787, "unit": "nM"}, {"measurement": "Effect on GRABeCB2.0 basal fluorescence", "setting": "GRABeCB2.0 sensor [4]", "value": "did not significantly alter basal fluorescence"}]}
{"compound": "CCNC1(C(N)=O)CCN(c2ncnc3c2nc(-c2ccccc2Cl)n3-c2ccc(Cl)cc2)CC1", "note": "[Otenabant]", "values": [{"measurement": "Ki", "setting": "CB1R; read-out: binding Ki for CB1R", "value": 0.7, "unit": "nM"}, {"measurement": "IC50", "setting": "CB1 receptor; read-out: reported IC50", "value": "[…]"}]}
{"compound": "CC(=O)[C@H]1CC[C@H]2[C@@H]3CC=C4C[C@@H](O)CC[C@]4(C)[C@H]3CC[C@]12C", "note": "[Pregnenolone]", "values": [{"measurement": "Effect on CP55940-activated GRABeCB2.0 fluorescence", "setting": "GRABeCB2.0 sensor [3]", "value": "void of any concentration-dependent effects"}, {"measurement": "Effect on 2-AG-activated GRABeCB2.0 fluorescence", "setting": "GRABeCB2.0 sensor [3]; 20 μM 2-AG", "value": "this behavior could be replicated"}, {"measurement": "Effect on GRABeCB2.0 basal fluorescence", "setting": "GRABeCB2.0 sensor [4]", "value": "did not significantly alter basal fluorescence"}]}
{"compound": "CC(=O)NC(=N)NC(=NS(=O)(=O)c1ccc(Cl)cc1)N1C[C@@H](c2ccccc2)C(c2ccc(Cl)cc2)=N1", "note": "[R-MRI-1776]", "values": [{"measurement": "CB1 binding of R-enantiomers on the sensor", "setting": "GRABeCB2.0 sensor [3]", "value": "weak CB1 binding"}]}
{"compound": "CC(=O)NC(=N)NC(=NS(=O)(=O)c1ccc(C(F)(F)F)cc1)N1C[C@@H](c2ccccc2)C(c2ccc(Cl)cc2)=N1", "note": "[R-MRI-1891]", "values": [{"measurement": "CB1 binding of R-enantiomers on the sensor", "setting": "GRABeCB2.0 sensor [3]", "value": "weak CB1 binding"}]}
{"compound": "C[C@H](NC(=O)C(C)(C)Oc1ccc(C(F)(F)F)cn1)[C@@H](Cc1ccc(Cl)cc1)c1cccc(C#N)c1", "note": "[Taranabant]", "values": [{"measurement": "Ki", "setting": "CB1R; read-out: reported Ki", "value": 0.13, "unit": "nM"}]}
{"compound": "Pregnenolone sulfate", "values": [{"measurement": "Effect on CP55940-activated GRABeCB2.0 fluorescence", "setting": "GRABeCB2.0 sensor [3]", "value": "extinguished CP fluorescence but showed no concentration-dependent effects"}]}
